Measured values published in US20190022088A1 (RedHill Biopharma Ltd., priority 2017, published 2019).

What was measured:
[1] = target: Human Tryptase-; test: Ki of WX-UK1, chromogenic substrate cleavage; type: biochemical; settings: Human Tryptase- (isoform character is an image); 37° C., 0.5% BSA, pH=7.4; read-out: Ki (μM) Mean ± SD (n)
Procedure: (§1) Samples of the selected proteases were prepared and characterized biochemically with respect to inhibitory constant (Ki) of inhibition by WX-UK1-1 and affinity (Kd) of the interaction.
Substrate concentrations were kept high in order to stay around 10% turnover per run.

[2] = target: T1, trypsin-2 (Homo sapiens, UniProt P07478); test: Drug-binding kinetic studies
T1 sequence (P07478 24-247): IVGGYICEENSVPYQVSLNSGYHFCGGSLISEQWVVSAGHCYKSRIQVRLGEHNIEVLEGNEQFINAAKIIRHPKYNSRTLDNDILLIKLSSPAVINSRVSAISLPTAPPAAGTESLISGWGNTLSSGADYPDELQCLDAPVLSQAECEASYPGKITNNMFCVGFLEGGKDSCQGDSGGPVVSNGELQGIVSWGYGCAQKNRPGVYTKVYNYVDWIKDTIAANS
Procedure: as §1

[3] = target: plasmin (Homo sapiens, UniProt P00747); settings: previously shown; cited from earlier work
Sequence of plasmin (P00747 581-810 limits assumed, species assumed): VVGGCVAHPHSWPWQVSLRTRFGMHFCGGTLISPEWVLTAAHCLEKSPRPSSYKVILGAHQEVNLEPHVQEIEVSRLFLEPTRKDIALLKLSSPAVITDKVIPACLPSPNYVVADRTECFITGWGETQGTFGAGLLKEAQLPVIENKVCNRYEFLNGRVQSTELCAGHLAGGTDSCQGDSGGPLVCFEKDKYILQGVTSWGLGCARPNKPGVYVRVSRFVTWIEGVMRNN
Sequence of plasmin (P00747 97-580 partner limits assumed, species assumed): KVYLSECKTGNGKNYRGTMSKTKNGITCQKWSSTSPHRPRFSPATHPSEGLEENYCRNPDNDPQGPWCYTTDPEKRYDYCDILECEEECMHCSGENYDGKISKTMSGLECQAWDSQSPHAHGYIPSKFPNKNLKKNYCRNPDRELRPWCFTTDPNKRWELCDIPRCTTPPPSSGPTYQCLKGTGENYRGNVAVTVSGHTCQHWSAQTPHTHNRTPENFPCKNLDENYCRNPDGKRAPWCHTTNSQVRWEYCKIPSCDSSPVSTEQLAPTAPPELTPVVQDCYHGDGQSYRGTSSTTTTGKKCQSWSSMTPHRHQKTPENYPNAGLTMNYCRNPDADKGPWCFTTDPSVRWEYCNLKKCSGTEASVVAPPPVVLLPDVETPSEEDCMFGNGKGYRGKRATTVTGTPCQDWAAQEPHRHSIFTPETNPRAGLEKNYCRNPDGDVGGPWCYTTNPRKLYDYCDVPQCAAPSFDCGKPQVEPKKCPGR

[4] = target: Human Trypsin-1 (Homo sapiens, UniProt P07477); test: Ki of WX-UK1, chromogenic substrate cleavage; type: biochemical; settings: 37° C., 0.5% BSA, pH=7.4, read-out: Ki (μM) Mean ± SD (n)
[5] = tested on: implanted tumors; settings: parenterally administered; cited from earlier work
[6] = target: T2, Human Trypsin-3 (Homo sapiens, UniProt P35030); test: Ki of WX-UK1, chromogenic substrate cleavage; type: biochemical; settings: 37° C., 0.5% BSA, pH=7.4, read-out: Ki (μM) Mean ± SD (n)
T2 sequence (P35030 81-304 limits assumed): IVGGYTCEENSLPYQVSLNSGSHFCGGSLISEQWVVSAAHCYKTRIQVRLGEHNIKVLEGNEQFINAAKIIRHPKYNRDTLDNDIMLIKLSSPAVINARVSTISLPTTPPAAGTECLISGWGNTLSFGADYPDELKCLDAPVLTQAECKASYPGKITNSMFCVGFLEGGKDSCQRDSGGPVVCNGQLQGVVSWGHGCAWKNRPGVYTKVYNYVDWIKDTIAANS

[7] = Solubility; type: physicochemical
[8] = target: T1, trypsin-2; test: Ki of WX-UK1, chromogenic substrate cleavage; type: biochemical; settings: 37° C., 0.5% BSA, pH=7.4, read-out: Ki (μM) Mean ± SD (n)
[9] = target: urokinase type plasminogen activator (uPA) (Homo sapiens, UniProt P00749); settings: previously shown; cited from earlier work

Ki [1]: 11 ± 2 µM
rate of association with trypsin-2 compared with uPA [2]: faster
rate of dissociation from trypsin-2 compared with uPA [2]: slower
Ki [4]: ~0.19 µM
Ki [6]: ~0.019 µM
solubility in water [7]: poor solubility
Ki [8]: ~0.075 µM
Structure (SMILES): CCOC(=O)N1CCN(C(=O)C(Cc2cccc(C(=N)N)c2)NS(=O)(=O)c2c(C(C)C)cc(C(C)C)cc2C(C)C)CC1 (stereo not drawn) [WX-UK1, N-α-(2,4,6-triisopropylphenylsulfonyl)-3-amidino-(L)-phenylalanine 4-ethoxycarbonylpiperazide]
Ki [3]: 1460 to 2400 nM
growth rate of implanted tumors [5]: reduce the growth rate of implanted tumors
invasion into nearby lymph nodes and spreading to distant target organs of metastasis [5]: inhibit their invasion into nearby lymph nodes and their spreading to distant target organs of metastasis
Ki [9]: 650 to 900 nM
